The text below walks through data of patent US10703764B2, “Benzopiperazine compositions as BET bromodomain inhibitors” (FORMA Therapeutics, Inc., priority 2013, dated 2020).

For test [1], the target named is T1, BRD4 BD1 (Homo sapiens, UniProt O60885).
T1 construct: made in house
Kind of test: AlphaScreen binding assay, BRD4 Bromodomain 1. A digest of the protocol: (§1)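 An AlphaScreen competition format was used with His-BRD4 BD1 or BD2 and biotin-H4 K5/8/12/16-acetyl peptide, each at matched final levels of 50 nM (BD1) or 100 nM (BD2). Incubation in HEPES/NaCl buffer with 0.1% BSA and 0.01% Triton X-100 ran ≥1 h before IC50 determination.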
(Bead proximity is the source of the signal in Alpha formats.)

For test [2], the system named is MV4-11 cells. Kind of test: Oncology cell growth assay (3-day proliferation, CellTiter-Glo). Type of test: cell-based. As to conditions: Homo sapiens, MV4-11, 72 h, AML cell line MV4-11, 72 hours, compounds grouped by IC50 range, read-out: MV4-11 IC50 (inhibition of proliferation, gIC50). The procedure, abridged: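 Compounds were serially diluted 3-fold in DMSO, giving final well concentrations from 10 down to 0.0045 μM. MV4-11 cells were then seeded at 3000 cells/well in RPMI 1640 with 10% FBS and incubated 72 hours. CellTiter-Glo signal was measured and gIC50 obtained by four-parameter logistic regression.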

Test [3] concerns the target T2, BRD4 BD2 (Homo sapiens, UniProt O60885).
T2 construct: made in house
Kind of test: AlphaScreen binding assay, BRD4 Bromodomain 2. The procedure, abridged:
as §1

As for `CC(=O)N1c2ccc(-c3ccc(NS(=O)(=O)c4ccc(C)cc4)cc3)cc2N(C(=O)c2ccco2)C[C@@H]1C` [Example I-860], the IC50 in test [1] was 100 to 1000 nM; in test [2], less than 100 nM; in test [3], less than 50 nM.

In the case of `CC(=O)N1c2ccc(-c3ccnc(N4CCOCC4)c3)cc2N(C(=O)c2ccco2)C[C@@H]1C` [Example I-862], the IC50 in test [1] was 100 to 1000 nM; in test [2] it was more than 500 nM; in test [3], 50 to 500 nM.

With `COc1cc(-c2ccc3c(c2)N(C(=O)c2ccco2)C[C@H](C)N3C(C)=O)ccn1` [Example I-863], the results for the IC50 in test [1], in test [2] and in test [3] were 1000 to 10000 nM, more than 500 nM and 50 to 500 nM, respectively.

With `CC(=O)N1c2ccc(-c3ccc4cnccc4c3)cc2N(C(=O)c2ccco2)C[C@@H]1C` [Example I-864], the IC50 was 100 to 1000 nM in test [1], 100 to 500 nM in test [2] and 50 to 500 nM in test [3].

Consider `CC(=O)N1c2ccc(-c3ccc4scnc4c3)cc2N(C(=O)c2ccco2)C[C@@H]1C` [Example I-865], for which the values for the IC50 in test [1], in test [2] and in test [3] were 100 to 1000 nM, 100 to 500 nM and less than 50 nM, respectively.

Turning to `CC(=O)N1c2ccc(-c3cccc(N4CCCCC4)c3)cc2N(C(=O)c2ccco2)C[C@@H]1C` [Example I-867], the IC50 is 1000 to 10000 nM in test [1], more than 500 nM in test [2] and 50 to 500 nM in test [3].

Turning to `CNC(=O)c1cccc(-c2ccc3c(c2)N(C(=O)c2ccco2)CCN3C(C)=O)c1` [Example I-868], the IC50 was more than 10000 nM in test [1], more than 500 nM in test [2] and more than 500 nM in test [3].

As for `CC(=O)N1c2ccc(-c3ccc(N(C)C)cc3)cc2N(C(=O)c2ccco2)C[C@@H]1C` [Example I-871], the IC50 in test [1] was 100 to 1000 nM; in test [2], 100 to 500 nM; in test [3], less than 50 nM.

On to `CC(=O)N1c2ccc(-c3ccc(C)s3)cc2N(C(=O)c2ccco2)C[C@@H]1C` [Example I-872], for which the figures for the IC50 in test [1], in test [2] and in test [3] were 100 to 1000 nM, 100 to 500 nM and less than 50 nM, respectively.

In the case of `CC(=O)N1c2ccc(-c3ccc(N4CCN(C)CC4)cc3)cc2N(C(=O)c2ccco2)C[C@@H]1C` [Example I-874], the IC50 in test [1] is 100 to 1000 nM; in test [2] it was 100 to 500 nM; in test [3] it was less than 50 nM.

For `CNS(=O)(=O)c1ccc(-c2ccc3c(c2)N(C(=O)c2ccco2)C[C@H](C)N3C(C)=O)cc1` [Example I-875], the IC50 in test [1] was 100 to 1000 nM; in test [2] it was 100 to 500 nM; in test [3], less than 50 nM.

`CCS(=O)(=O)Nc1cccc(-c2ccc3c(c2)N(C(=O)c2ccco2)C[C@H](C)N3C(C)=O)c1` [Example I-876]: the results for the IC50 in test [1], in test [2] and in test [3] were 100 to 1000 nM, 100 to 500 nM and less than 50 nM, respectively.

Turning to `CNC(=O)N1c2ccc(-c3ccc(S(C)(=O)=O)cc3)cc2N(C(=O)c2ccco2)C[C@@H]1C` [Example I-988], the IC50 in test [1] is 1000 to 10000 nM; in test [2], more than 500 nM; in test [3], 50 to 500 nM.

As to `CC(=O)N1c2ccc(-c3cnn(C4CC4)c3)cc2N(C(=O)OCC2CC2)C[C@@H]1C` [Example I-994], the results for the IC50 in test [1], in test [2] and in test [3] were 100 to 1000 nM, 100 to 500 nM and 50 to 500 nM, respectively.

With `C[C@H]1CN(C(=O)OCC2CC2)c2cc(-c3cnn(C4CC4)c3)ccc2N1C(=O)C1CC1` [Example I-995], the figures for the IC50 in test [1], in test [2] and in test [3] were 100 to 1000 nM, 100 to 500 nM and 50 to 500 nM, respectively.

As for `COC(=O)N1c2ccc(-c3cnn(C4CC4)c3)cc2N(C(=O)OCC2CC2)C[C@@H]1C` [Example I-996], the IC50 in test [1] was 100 to 1000 nM; in test [2], more than 500 nM; in test [3] it was more than 500 nM.

With `CC(=O)N1c2ccc(-c3cnn(C4CC4)c3)cc2N(C(=O)OC2COC2)C[C@@H]1C` [Example I-997], the IC50 in test [1] lay within 100 to 1000 nM; in test [2], 100 to 500 nM; in test [3], 50 to 500 nM.

As to `CC(=O)N1c2ccc(-c3cnn(C4CC4)c3)cc2N(C(=O)OC2CCOCC2)C[C@@H]1C` [Example I-1000], the IC50 in test [1] is less than 100 nM; in test [2], 100 to 500 nM; in test [3] it was 50 to 500 nM.

`C[C@H]1CN(C(=O)OC2CCOCC2)c2cc(-c3cnn(C4CC4)c3)ccc2N1C(=O)C1CC1` [Example I-1001]: the IC50 lay in the range of 100 to 1000 nM in test [1], 100 to 500 nM in test [2] and 50 to 500 nM in test [3].

Turning to `COC(=O)N1c2ccc(-c3cnn(C4CC4)c3)cc2N(C(=O)OC2CCOCC2)C[C@@H]1C` [Example I-1002], the results for the IC50 in test [1], in test [2] and in test [3] were 100 to 1000 nM, 100 to 500 nM and 50 to 500 nM, respectively.

As for `CC(=O)N1c2ccc(-c3cnn(C4CC4)c3)cc2N(C(=O)OC2CCC2)C[C@@H]1C` [Example I-1003], the IC50 in test [1] is less than 100 nM; in test [2], less than 100 nM; in test [3], 50 to 500 nM.

As for `COC(=O)N1c2ccc(-c3cnn(C4CC4)c3)cc2N(C(=O)OC2CCC2)C[C@@H]1C` [Example I-1005], the IC50 fell in the range of 100 to 1000 nM in test [1], 100 to 500 nM in test [2] and 50 to 500 nM in test [3].

In the case of `CC(=O)N1c2ccc(-c3ccc(N4CCCS4(=O)=O)cc3)cc2N(C(=O)Oc2ccc(F)cc2F)C[C@@H]1C` [Example I-1011], the figures for the IC50 in test [1], in test [2] and in test [3] were 100 to 1000 nM, 100 to 500 nM and less than 50 nM, respectively.

Regarding `CC(=O)N1c2ccc(-c3cnn(CCC#N)c3)cc2N(C(=O)Oc2ccc(F)cc2F)C[C@@H]1C` [Example I-1012], the IC50 in test [1] is 100 to 1000 nM; in test [2] it was 100 to 500 nM; in test [3], less than 50 nM.

Turning to `CC(=O)N1c2ccc(-c3ccc(NS(C)(=O)=O)cc3)cc2N(C(=O)Oc2ccc(F)cc2F)C[C@@H]1C` [Example I-1013], the results for the IC50 in test [1], in test [2] and in test [3] were 100 to 1000 nM, 100 to 500 nM and 50 to 500 nM, respectively.

Regarding `CC(=O)N1c2ccc(-c3cnn(C(C)(C)CO)c3)cc2N(C(=O)Oc2ccc(F)cc2F)C[C@@H]1C` [Example I-1014], the IC50 in test [1] is 100 to 1000 nM; in test [2], 100 to 500 nM; in test [3], less than 50 nM.

For `CC(=O)N1c2ccc(-c3cnn(CCO)c3)cc2N(C(=O)Oc2ccc(F)cc2)C[C@@H]1C` [Example I-1015], the IC50 in test [1] was in the range of 100 to 1000 nM; in test [2], 100 to 500 nM; in test [3], 50 to 500 nM.

As to `CC(=O)N1c2ccc(-c3cnn(CCC#N)c3)cc2N(C(=O)Oc2ccc(F)cc2)C[C@@H]1C` [Example I-1018], the IC50 in test [1] was less than 100 nM; in test [2] it was 100 to 500 nM; in test [3], less than 50 nM.

As for `CC(=O)N1c2ccc(-c3ccc(NS(C)(=O)=O)cc3)cc2N(C(=O)Oc2ccc(F)cc2)C[C@@H]1C` [Example I-1019], the figures for the IC50 in test [1], in test [2] and in test [3] were 100 to 1000 nM, 100 to 500 nM and less than 50 nM, respectively.

On to `CC(=O)N1c2ccc(-c3cnn(C(C)(C)CO)c3)cc2N(C(=O)Oc2ccc(F)cc2)C[C@@H]1C` [Example I-1020], for which the IC50 in test [1] was 100 to 1000 nM; in test [2], 100 to 500 nM; in test [3] it was less than 50 nM.

`CC(=O)N1c2ccc(-c3ccc(N4CCCS4(=O)=O)cc3)cc2N(C(=O)Oc2ccc(F)cc2)C[C@@H]1C` [Example I-1021]: the IC50 is 100 to 1000 nM in test [1], less than 100 nM in test [2] and 50 to 500 nM in test [3].

As for `COC(=O)N1c2ccc(-c3cnn(CC(C)(C)O)c3)cc2N(C(=O)Oc2ccc(F)cc2)C[C@@H]1C` [Example I-1023], the IC50 in test [1] is 100 to 1000 nM; in test [2], more than 500 nM; in test [3] it was less than 50 nM.
